The source of these data is patent publication US8822526B2, “Synergistic pharmaceutical combination for the treatment of cancer” (Piramal Enterprises Limited, priority 2007, dated 2014).

In data set [1] the test system is human pancreatic (Panc-1) cell line. Description: In vitro cytotoxicity assay (MTS). It counts as cell-based. The following applies: then complete medium 72 hours.
Data set [2] has as its system pancreatic cells (Panc-1). Briefly: Analysis of cell cycle distribution and flow cytometry (sub G1 apoptosis). It counts as cell-based, human. The following applies: FIG. 3: 70 nM gemcitabine alone (24 hours); 300 nM compound A alone (72 hours); combination 70 nM gemcitabine (24 hours) followed by 300 nM compound A (72 hours). On the technique in general: A flow cytometer gives signals particle by particle.

Data set [3] concerns human non-small cell lung carcinoma H-460 cells. Description: In vitro cytotoxicity assay (MTS). The note with it: for % Cytotoxicity: then complete medium 45 hours. The procedure: The cytotoxicity assay used was MTS (3-(4,5-dimethylthiazol-2-yl)-5-(3-carboxymethoxyphenyl)-2-(4-sulfophenyl)-2H-tetrazolium, inner salt) assay. The human non-small cell lung carcinoma H-460 cells were seeded at a density of 1500 cells/well in 180 μL of culture medium in 96-well plate and incubated overnight to allow the cells to adhere. Varying concentrations of the drugs contained in the combination were added to the wells and incubated for an appropriate period of time in humidified 5% CO2 incubator at 37° C. in case of a single drug exposure. […] Control wells were treated with a vehicle. At the end of the incubation period, the medium was removed from the wells and 20 μL of MTS (2 mg/mL in phosphate buffer saline, pH 6-6.5 and filter sterilized) and 1 μL of phenazine methosulfate (PMS, 3 mM in phosphate buffered saline, pH 7.3 and filter sterilized) was added to each well and the total volume was adjusted to 200 μL with complete medium. The plate was incubated for 2-4 hours in humidified 5% CO2 incubator at 37° C.
(§1) After completion of the drugs treatment i.e. at the end of 96 hours the plates were processed for MTS viability assay and the percent cytotoxicity was calculated as compared to control.
as §1
(§2) The human non-small cell lung carcinoma H-460 cells were seeded at a density of 1500 cells/well. […] After completion of the drugs treatment i.e. at the end of 120 hours the plates were processed for MTS viability assay and the percent cytotoxicity was calculated as compared to control.
as §2
The human non-small cell lung carcinoma H-460 cells were seeded at a density of 1500 cells/well. […] After completion of the drugs treatment i.e. at the end of 120 hours, the plates were processed for MTS viability assay and the percent cytotoxicity was calculated as compared to control.
(§3) After completion of the drugs treatment i.e. at the end of 48 hours the plates were processed for MTS viability assay and the percent cytotoxicity was calculated as compared to control.
The plates were processed for MTS viability assay and the percent cytotoxicity was calculated as compared to control.
as §3
The human non-small cell lung carcinoma H-460 cells were seeded at a density of 1500 cells/well. As per Table 16A the cells were first treated with either of the drugs alone i.e. with doxorubicin or flavopiridol alone. Doxorubicin treatment was for the first 24 hours followed by complete medium for 96 hours while in case of flavopiridol, the first 24 hours was in complete medium followed by flavopiridol for the next 96 hours. […] After completion of the drugs treatment i.e. at the end of 120 hours the plates were processed for MTS viability assay and the percent cytotoxicity was calculated as compared to control.
As per Table 16B the cells were first treated with either of the drugs alone i.e. with doxorubicin or flavopiridol alone. Flavopiridol treatment was for the first 96 hours followed by complete medium for 24 hours while in case of doxorubicin, the first 96 hours was in complete medium followed by doxorubicin for 24 hours. […] After completion of the drugs treatment i.e. at the end of 120 hours, the plates were processed for MTS viability assay and the percent cytotoxicity was calculated as compared to control.
The human non-small cell lung carcinoma H-460 cells were seeded at a density of 1500 cells/well.

As to `Nc1ccn([C@@H]2O[C@H](CO)[C@@H](O)C2(F)F)c(=O)n1` [Gemcitabine, 2′-deoxy-2′,2′-difluorocytidine], the “% Cytotoxicity” value in data set [1] (Gemcitabine 30 nM first 24 hours) was 2%; in data set [1] (Gemcitabine 70 nM first 24 hours), 18%; in data set [1] (Gemcitabine 100 nM first 24 hours), 38%; in data set [1] (Gemcitabine 200 nM first 24 hours), 78%. Moreover, the “apoptosis (sub G1 phase)” value in data set [2] amounted to 1.7%.

Regarding `CN1CC[C@H](c2c(O)cc(O)c3c(=O)cc(-c4ccccc4Cl)oc23)[C@H](O)C1` [Flavopiridol], the “IC30 concentration after 48 hours treatment” value in data set [3] (H-460 cells, 48 hours treatment) amounted to 200 nM. Also, in data set [3] (Homo sapiens, NCI-H460, 48 h, read-out: IC50 concentration after 48 hours treatment, H-460 cells, 48 hours treatment), the IC50 amounted to 350 nM. The cytotoxicity at 0.2 µM in data set [3] (Homo sapiens, NCI-H460, 120 h, Flavopiridol 200 nM alone for 120 hours) came to 39%. In addition, the cytotoxicity at 0.35 µM in data set [3] (Homo sapiens, NCI-H460, 120 h, Flavopiridol 350 nM alone for 120 hours) was 81%.

Regarding `CC(=O)O[C@H]1C(=O)[C@@]2(C)[C@H]([C@H](OC(=O)c3ccccc3)[C@]3(O)C[C@H](OC(=O)[C@H](O)[C@@H](NC(=O)c4ccccc4)c4ccccc4)C(C)=C1C3(C)C)[C@]1(OC(C)=O)CO[C@@H]1C[C@@H]2O` [Paclitaxel], the “% Cytotoxicity” value in data set [3] (Paclitaxel 10 nM first 3 hours, 1500 cells/well) is 10%.

Consider `CC(=O)O[C@@]12CO[C@@H]1C[C@H](O)[C@@]1(C)C(=O)[C@H](O)C3=C(C)[C@@H](OC(=O)[C@H](O)[C@@H](NC(=O)OC(C)(C)C)c4ccccc4)C[C@@](O)([C@@H](OC(=O)c4ccccc4)[C@H]21)C3(C)C` [Docetaxel], for which the “% Cytotoxicity” value is on record as 0% in data set [3] (Docetaxel 0.1 nM first 3 hours, 3000 cells/well) and 2% in data set [3] (Docetaxel 3 nM first 3 hours, 3000 cells/well).
